Residues, ends and D or L forms follow the SMILES beside them.
Target: IL-17RA/IL17RC dimerization induced by IL-17A (Homo sapiens, UniProt Q16552)
Experiment: IL-17RA/IL17RC dimerization assay in response to IL-17A (PathHunter Cytokine Receptor Assay)
Type: cell-based
Details: IL-17A at EC80; read-out: IC50 in IL-17RA/IL7RC dimerization assay
Procedure, shortened: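 PathHunter cells with IL-17RA and IL-17RC tagged for β-galactosidase complementation were preincubated 60 min with peptide (1% vehicle). IL-17A was then added at EC80 for 6–16 h at 37 °C, and chemiluminescence was read. Inhibition is relative to the EC80 and vehicle controls.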

IL-17RA/IL17RC dimerization induced by IL-17A, sequence (Q16552 24-155): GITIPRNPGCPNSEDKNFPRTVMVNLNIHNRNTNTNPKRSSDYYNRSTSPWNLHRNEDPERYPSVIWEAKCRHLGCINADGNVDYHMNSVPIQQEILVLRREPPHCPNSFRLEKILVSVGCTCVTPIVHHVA

| IC50 [µM] | Structure (SMILES) |
| --- | --- |
| < 0.5 | CC[C@H](C)[C@H](NC(=O)[C@@H](NC(=O)[C@@H](NC(=O)[C@H](Cc1c[nH]cn1)NC(=O)[C@@H](NC(C)=O)C(C)C)C(C)C)[C@@H](C)O)C(=O)N1CCC[C@H]1C(=O)N[C@@H](C)C(=O)N[C@@H](CC(N)=O)C(=O)N[C@@H](CC(C)C)C(=O)N[C@@H](Cc1c[nH]c2ccccc12)C(=O)N[C@@H](CCC(=O)O)C(=O)N[C@@H](Cc1c[nH]c2ccccc12)C(=O)N[C@H](C(=O)N[C@@H](CCCNC(=N)N)C(=O)N[C@@H](CCCNC(=N)N)C(N)=O)C(C)C [SEQ ID NO: 116] (Ac-VHVTIPANLWEWVRR-NH2) |
| < 10 | CC[C@H](C)[C@H](NC(=O)[C@H](CCC(=O)O)NC(=O)[C@H](CCC(N)=O)NC(=O)[C@@H]1CCCN1C(=O)[C@@H](NC(=O)[C@@H](NC(=O)[C@@H](NC(=O)[C@H](Cc1c[nH]cn1)NC(=O)[C@@H](NC(C)=O)C(C)C)C(C)C)[C@@H](C)O)[C@@H](C)CC)C(=O)N[C@@H](Cc1c[nH]c2ccccc12)C(=O)N[C@@H](CCC(=O)O)C(=O)N[C@@H](Cc1c[nH]c2ccccc12)C(=O)N[C@H](C(=O)N[C@@H](CCCNC(=N)N)C(=O)N[C@@H](CCCNC(=N)N)C(N)=O)C(C)C [SEQ ID NO: 237] (Ac-VHVTIPQEIWEWVRR-NH2) |
| < 10 | CC[C@H](C)[C@H](NC(C)=O)C(=O)N[C@@H](Cc1c[nH]cn1)C(=O)N[C@H](C(=O)N[C@H](C(=O)N[C@H](C(=O)N1CCC[C@H]1C(=O)N[C@@H](C)C(=O)N[C@@H](CC(=O)O)C(=O)N[C@@H](CC(C)C)C(=O)N[C@@H](Cc1c[nH]c2ccccc12)C(=O)N[C@@H](CC(N)=O)C(=O)N[C@@H](Cc1c[nH]c2ccccc12)C(=O)N[C@H](C(=O)N[C@@H](CC(N)=O)C(=O)N[C@@H](CCCCN)C(N)=O)[C@@H](C)CC)[C@@H](C)CC)[C@@H](C)O)C(C)C [SEQ ID NO: 208] (Ac-IHVTIPADLWNWINK-NH2) |
| < 10 | CC[C@H](C)[C@H](NC(=O)[C@H](Cc1c[nH]c2ccccc12)NC(=O)[C@H](CC(=O)O)NC(=O)[C@H](Cc1c[nH]c2ccccc12)NC(=O)[C@H](CC(C)C)NC(=O)[C@H](CC(=O)O)NC(=O)[C@H](C)NC(=O)[C@@H]1CCCN1C(=O)[C@@H](NC(=O)[C@@H](NC(=O)[C@@H](NC(=O)[C@H](Cc1c[nH]cn1)NC(=O)[C@H](C)NC(C)=O)C(C)C)[C@@H](C)O)[C@@H](C)CC)C(=O)N[C@@H](CC(N)=O)C(=O)N[C@@H](CCCCN)C(N)=O [SEQ ID NO: 158] (Ac-AHVTIPADLWDWINK-NH2) |
| < 10 | CC[C@H](C)[C@H](NC(C)=O)C(=O)N[C@@H](Cc1c[nH]cn1)C(=O)N[C@H](C(=O)N[C@H](C(=O)N[C@H](C(=O)N1CCC[C@H]1C(=O)NCC(=O)N[C@@H](CCC(=O)O)C(=O)N[C@H](C(=O)N[C@@H](Cc1ccccc1)C(=O)N[C@@H](CCC(=O)O)C(=O)N[C@@H](Cc1c[nH]c2ccccc12)C(=O)N[C@@H](CC(C)C)C(=O)N[C@@H](CCC(N)=O)C(=O)N[C@@H](Cc1c[nH]cn1)C(N)=O)[C@@H](C)CC)[C@@H](C)CC)[C@@H](C)O)C(C)C [SEQ ID NO: 250] (Ac-IHVTIPGEIFEWLQH-NH2) |
| < 10 | CC[C@H](C)[C@H](NC(=O)[C@H](Cc1c[nH]c2ccccc12)NC(=O)[C@H](CC(=O)O)NC(=O)[C@H](Cc1c[nH]c2ccccc12)NC(=O)[C@H](CC(C)C)NC(=O)[C@H](CC(=O)O)NC(=O)[C@H](C)NC(=O)[C@@H]1CCCN1C(=O)[C@@H](NC(=O)[C@H](Cc1ccc(O)cc1)NC(=O)[C@H](CC(C)C)NC(=O)[C@H](CCCNC(=N)N)NC(=O)[C@@H](NC(C)=O)C(C)C)C(C)C)C(=O)N[C@@H](CC(N)=O)C(=O)N[C@@H](CCCCN)C(N)=O [SEQ ID NO: 244] (Ac-VRLYVPADLWDWINK-NH2) |
| < 10 | CC(=O)N[C@H](C(=O)N[C@@H](CCCNC(=N)N)C(=O)N[C@H](C(=O)N[C@H](C(=O)N[C@H](C(=O)N1CCC[C@H]1C(=O)N[C@@H](CCC(N)=O)C(=O)N[C@@H](CCC(=O)O)C(=O)N[C@@H](CC(C)C)C(=O)N[C@@H](Cc1ccc(O)cc1)C(=O)N[C@@H](CCC(=O)O)C(=O)N[C@@H](Cc1c[nH]c2ccccc12)C(=O)N[C@H](C(=O)N[C@@H](CCCNC(=N)N)C(=O)N[C@@H](CCCNC(=N)N)C(N)=O)C(C)C)C(C)C)[C@@H](C)O)C(C)C)C(C)C [SEQ ID NO: 234] (Ac-VRVTVPQELYEWVRR-NH2) |
| < 10 | CC[C@H](C)[C@H](NC(C)=O)C(=O)N[C@@H](CCCCN)C(=O)N[C@H](C(=O)N[C@H](C(=O)N[C@H](C(=O)N1CCC[C@H]1C(=O)N[C@@H](C)C(=O)N[C@@H](CC(=O)O)C(=O)N[C@@H](CC(C)C)C(=O)N[C@@H](Cc1c[nH]c2ccccc12)C(=O)N[C@@H](CC(=O)O)C(=O)N[C@@H](Cc1c[nH]c2ccccc12)C(=O)N[C@H](C(=O)N[C@@H](CC(N)=O)C(=O)N[C@@H](CCCCN)C(N)=O)[C@@H](C)CC)[C@@H](C)CC)[C@@H](C)O)C(C)C [SEQ ID NO: 163] (Ac-IKVTIPADLWDWINK-NH2) |
| < 0.5 | CC[C@H](C)[C@H](NC(=O)[C@@H](NC(=O)[C@@H](NC(=O)[C@H](Cc1c[nH]cn1)NC(=O)[C@@H](NC(=O)CNC(=O)[C@H](C)NC(=O)CNC(=O)[C@@H]1CCCN1C(=O)[C@@H](NC(=O)CNC(=O)[C@H](C)NC(=O)CNC(=O)[C@@H]1CCCN1C(=O)[C@@H](NC(C)=O)C(C)C)C(C)C)[C@@H](C)CC)C(C)C)[C@@H](C)O)C(N)=O [SEQ ID NO: 156] (Ac-VPGAGVPGAGIHVTI-NH2) |
| < 10 | CC[C@H](C)[C@H](NC(C)=O)C(=O)N[C@@H](Cc1c[nH]cn1)C(=O)N[C@H](C(=O)N[C@H](C(=O)N[C@H](C(=O)N1CCC[C@H]1C(=O)N[C@@H](C)C(=O)N[C@@H](CC(=O)O)C(=O)N1CCC[C@H]1C(=O)N[C@@H](Cc1c[nH]c2ccccc12)C(=O)N[C@@H](CC(=O)O)C(=O)N[C@@H](Cc1c[nH]c2ccccc12)C(=O)N[C@H](C(=O)N[C@@H](CC(N)=O)C(=O)N[C@@H](CCCCN)C(N)=O)[C@@H](C)CC)[C@@H](C)CC)[C@@H](C)O)C(C)C [SEQ ID NO: 203] (Ac-IHVTIPADPWDWINK-NH2) |
| < 10 | CC[C@H](C)[C@H](NC(C)=O)C(=O)N[C@@H](Cc1c[nH]cn1)C(=O)N[C@H](C(=O)N[C@H](C(=O)N[C@H](C(=O)N1CCC[C@H]1C(=O)N[C@@H](C)C(=O)N[C@@H](CC(=O)O)C(=O)N[C@@H](CC(C)C)C(=O)N[C@@H](Cc1c[nH]c2ccccc12)C(=O)N[C@@H](CC(=O)O)C(=O)N[C@@H](Cc1c[nH]c2ccccc12)C(=O)N1CCC[C@H]1C(=O)N[C@@H](CC(N)=O)C(=O)N[C@@H](CCCCN)C(N)=O)[C@@H](C)CC)[C@@H](C)O)C(C)C [SEQ ID NO: 217] (Ac-IHVTIPADLWDWPNK-NH2) |
| < 0.5 | CC[C@H](C)[C@H](NC(=O)[C@@H](NC(=O)[C@H](Cc1ccccc1)NC(=O)[C@H](Cc1c[nH]cn1)NC(=O)[C@@H](NC(C)=O)C(C)C)[C@@H](C)O)C(=O)N1CCC[C@H]1C(=O)N[C@@H](C)C(=O)N[C@@H](CC(=O)O)C(=O)N[C@@H](CC(C)C)C(=O)N[C@@H](Cc1ccc(O)cc1)C(=O)N[C@@H](CC(N)=O)C(=O)N[C@@H](Cc1ccccc1)C(=O)N[C@H](C(=O)N[C@@H](CCCNC(=N)N)C(=O)N[C@@H](CCCNC(=N)N)C(N)=O)C(C)C [SEQ ID NO: 152] (Ac-VHFTIPADLYNFVRR-NH2) |
| < 1 | CCCCCCCCCC(=O)N[C@H](C(=O)N[C@@H](CCSC)C(=O)N[C@H](C(=O)N[C@H](C(=O)N[C@H](C(=O)N1CCC[C@H]1C(=O)N[C@@H](C)C(=O)N[C@@H](CC(=O)O)C(=O)N[C@@H](CC(C)C)C(=O)N[C@@H](Cc1ccc(O)cc1)C(=O)N[C@@H](CCC(=O)O)C(=O)N[C@@H](Cc1c[nH]c2ccccc12)C(=O)N[C@H](C(=O)N[C@@H](CCC(=O)O)C(=O)N[C@@H](CCC(=O)O)C(N)=O)[C@@H](C)CC)[C@@H](C)CC)[C@@H](C)O)C(C)C)[C@@H](C)CC [BIO-4] |
| < 10 | CC[C@H](C)[C@H](NC(C)=O)C(=O)N[C@@H](Cc1c[nH]cn1)C(=O)N[C@H](C(=O)N[C@H](C(=O)N[C@H](C(=O)N1CCC[C@H]1C(=O)N[C@@H](C)C(=O)N[C@@H](CC(=O)O)C(=O)N[C@@H](CC(C)C)C(=O)N[C@@H](Cc1c[nH]c2ccccc12)C(=O)N[C@@H](CC(=O)O)C(=O)N[C@@H](Cc1ccccc1)C(=O)N[C@H](C(=O)N[C@@H](CC(N)=O)C(=O)N[C@@H](CCCCN)C(N)=O)[C@@H](C)CC)[C@@H](C)CC)[C@@H](C)O)C(C)C [SEQ ID NO: 210] (Ac-IHVTIPADLWDFINK-NH2) |
| < 10 | CC[C@H](C)[C@H](NC(=O)[C@H](Cc1c[nH]c2ccccc12)NC(=O)[C@H](CC(=O)O)NC(=O)[C@H](Cc1c[nH]c2ccccc12)NC(=O)[C@H](CC(C)C)NC(=O)[C@H](CC(=O)O)NC(=O)[C@H](C)NC(=O)[C@@H]1CCCN1C(=O)[C@@H](NC(=O)[C@@H](NC(=O)[C@@H](NC(=O)[C@H](Cc1c[nH]cn1)NC(=O)[C@@H]1CCCN1C(C)=O)C(C)C)[C@@H](C)O)[C@@H](C)CC)C(=O)N[C@@H](CC(N)=O)C(=O)N[C@@H](CCCCN)C(N)=O [SEQ ID NO: 161] (Ac-PHVTIPADLWDWINK-NH2) |
| < 10 | CC[C@H](C)[C@H](NC(C)=O)C(=O)N[C@@H](Cc1c[nH]cn1)C(=O)N[C@H](C(=O)N[C@H](C(=O)N[C@H](C(=O)N1CCC[C@H]1C(=O)N[C@@H](C)C(=O)N[C@@H](CC(=O)O)C(=O)N[C@@H](CC(C)C)C(=O)N[C@@H](Cc1c[nH]c2ccccc12)C(=O)N[C@@H](CC(=O)O)C(=O)N[C@@H](Cc1c[nH]c2ccccc12)C(=O)N[C@H](C(=O)N[C@@H](CC(N)=O)C(=O)N[C@@H](CCCCN)C(N)=O)[C@@H](C)CC)[C@@H](C)CC)[C@@H](C)O)[C@@H](C)CC [SEQ ID NO: 171] (Ac-IHITIPADLWDWINK-NH2) |
| < 10 | CC(=O)N[C@H](C(=O)N[C@@H](Cc1c[nH]cn1)C(=O)N[C@H](C(=O)N[C@H](C(=O)N[C@H](C(=O)N1CCC[C@H]1C(=O)N[C@@H](CCC(N)=O)C(=O)N[C@@H](CCC(=O)O)C(=O)N[C@@H](CC(C)C)C(=O)N[C@@H](Cc1ccccc1)C(=O)N[C@@H](CCC(=O)O)C(=O)N[C@@H](Cc1c[nH]c2ccccc12)C(=O)N[C@H](C(=O)N[C@@H](CCC(=O)O)C(=O)N[C@@H](CCC(=O)O)C(N)=O)C(C)C)C(C)C)[C@@H](C)O)C(C)C)C(C)C [SEQ ID NO: 228] (Ac-VHVTVPQELFEWVEE-NH2) |
